# How the values were obtained:
# GBM LN18 cells = assay: In vitro cell viability assay (Cell Titre Glo, 72 hours); assay type: cell-based; details: Homo sapiens, LN-18, read-out: LN18 pIC50 (converted)
# Procedure: GBM LN18 cells were incubated with increasing concentrations of selected compounds of the invention for 72 hours prior to the measurement of ATP in metabolically viable cells with the Cell Titre® Glo Luminescent reagent. A 10-point concentration response curve up to a maximum concentration of 10 μM was tested.
# The percent (%) effect i.e., inhibition at each concentration of compound was calculated based on, and relative to the amount of inhibition produced in the vehicle control and inhibited control wells contained within each plate.
# human Chk1 kinase = target: T1, human Chk1 kinase (Homo sapiens, UniProt O14757); assay: biochemical
# T1 sequence (O14757 1-476): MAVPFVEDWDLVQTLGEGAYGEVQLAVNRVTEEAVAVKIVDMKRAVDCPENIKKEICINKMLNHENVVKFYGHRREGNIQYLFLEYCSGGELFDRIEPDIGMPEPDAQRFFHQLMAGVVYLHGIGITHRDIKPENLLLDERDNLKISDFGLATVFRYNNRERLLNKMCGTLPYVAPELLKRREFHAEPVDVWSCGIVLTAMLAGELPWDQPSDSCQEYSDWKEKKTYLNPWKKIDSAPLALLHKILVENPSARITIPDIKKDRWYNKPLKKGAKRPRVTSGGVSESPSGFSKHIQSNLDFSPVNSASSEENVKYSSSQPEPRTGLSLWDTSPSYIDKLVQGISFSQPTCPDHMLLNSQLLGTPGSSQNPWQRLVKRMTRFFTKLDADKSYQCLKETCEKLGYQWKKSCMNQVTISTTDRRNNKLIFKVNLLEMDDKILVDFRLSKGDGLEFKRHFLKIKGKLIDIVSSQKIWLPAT
# human Chk2 kinase = human Chk2 kinase (Homo sapiens, UniProt O96017); assay: biochemical
# Chain of human Chk2 kinase (O96017 whole entry): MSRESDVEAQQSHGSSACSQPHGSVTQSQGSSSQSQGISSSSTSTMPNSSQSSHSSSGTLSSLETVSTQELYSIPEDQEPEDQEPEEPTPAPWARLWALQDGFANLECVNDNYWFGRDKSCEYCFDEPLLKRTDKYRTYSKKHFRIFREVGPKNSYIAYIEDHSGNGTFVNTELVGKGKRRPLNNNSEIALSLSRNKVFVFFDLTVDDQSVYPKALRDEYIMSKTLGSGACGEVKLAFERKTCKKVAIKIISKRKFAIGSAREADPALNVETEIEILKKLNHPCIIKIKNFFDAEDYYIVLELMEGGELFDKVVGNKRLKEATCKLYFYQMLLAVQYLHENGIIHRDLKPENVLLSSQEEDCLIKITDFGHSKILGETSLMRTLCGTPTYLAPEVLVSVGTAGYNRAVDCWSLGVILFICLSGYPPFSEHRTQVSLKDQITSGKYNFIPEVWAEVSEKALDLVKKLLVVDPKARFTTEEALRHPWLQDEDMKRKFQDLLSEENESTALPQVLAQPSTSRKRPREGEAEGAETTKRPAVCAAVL
SMILES,IC50 (human Chk1 kinase),IC50 (human Chk2 kinase),IC50 (GBM LN18 cells)
"CN1C[C@@H]2CN(c3ccc(-n4cnc(Nc5cnc(C#N)cn5)c4)cc3)[C@@H]2C1 [Example 67, 5-((1-(4-((1R,5S)-3-Methyl-3,6-diazabicyclo[3.2.0]heptan-6-yl)phenyl)-1H-imidazol-4-yl)amino)pyrazine-2-carbonitrile]",31.6 to 100 nM,10000 to 100000 nM,< 1000 nM
"N#Cc1cnc(Nc2cn(-c3ccc(N4CC(CN)C4)cc3)cn2)cn1 [Example 158, 5-((1-(4-(3-(Aminomethyl)azetidin-1-yl)phenyl)-1H-imidazol-4-yl)amino)pyrazine-2-carbonitrile]",10 to 31.6 nM,10000 to 100000 nM,1000 to 10000 nM
"CN1CC2(CCN(c3ccc(-n4cnc(Nc5cnc(C#N)cn5)c4)cc3)C2)C1 [Example 69, 5-((1-(4-(2-Methyl-2,6-diazaspiro[3.4]octan-6-yl)phenyl)-1H-imidazol-4-yl)amino)pyrazine-2-carbonitrile]",10 to 31.6 nM,10000 to 100000 nM,1000 to 10000 nM
"C[C@@H]1C[C@@H](N)CN1c1ccc(-n2cnc(Nc3cnc(C#N)cn3)c2)cc1 [Example 165, 5-((1-(4-((2R,4R)-4-Amino-2-methylpyrrolidin-1-yl)phenyl)-1H-imidazol-4-yl)amino)pyrazine-2-carbonitrile]",< 10 nM,1000 to 10000 nM,< 1000 nM
"C[C@@H]1CN(c2ccc(-n3cnc(Nc4cnc(C#N)cn4)c3)cc2)C[C@@H]1N(C)C [Example 76, 5-((1-(4-((3R,4R)-3-(Dimethylamino)-4-methylpyrrolidin-1-yl)phenyl)-1H-imidazol-4-yl)amino)pyrazine-2-carbonitrile]",10 to 31.6 nM,10000 to 100000 nM,< 1000 nM
"N#Cc1cnc(Nc2cn(-c3ccc(OCCN)cc3)cn2)cn1 [Example 150, 5-((1-(4-(2-Aminoethoxy)phenyl)-1H-imidazol-4-yl)amino)pyrazine-2-carbonitrile]",–,–,1000 to 10000 nM
"C[C@H]1C[C@@H](N(C)C)CN1c1ccc(-n2cnc(Nc3cnc(C#N)cn3)c2)cc1 [Example 75, 5-((1-(4-((2S,4R)-4-(Dimethylamino)-2-methylpyrrolidin-1-yl)phenyl)-1H-imidazol-4-yl)amino)pyrazine-2-carbonitrile]",–,–,< 1000 nM
"CN1C[C@@H]2CN(c3ccc(-n4cnc(Nc5cnc(C#N)cn5)c4)cc3)C[C@@H]2C1 [Example 101, 5-((1-(4-((3aR,6aS)-5-Methylhexahydropyrrolo[3,4-c]pyrrol-2(1H)-yl)phenyl)-1H-imidazol-4-yl)amino)pyrazine-2-carbonitrile]",< 10 nM,10000 to 100000 nM,–
"CC1(C)CCN1C1CCN(c2ccc(-n3cnc(Nc4cnc(C#N)cn4)c3)cc2)C1 (single isomer, unassigned) [Example 140, 5-((1-(4-(3-(2,2-Dimethylazetidin-1-yl)pyrrolidin-1-yl)phenyl)-1H-imidazol-4-yl)amino)pyrazine-2-carbonitrile]",< 10 nM,1000 to 10000 nM,–
"CC1CN(C2CCN(c3ccc(-n4cnc(Nc5cnc(C#N)cn5)c4)cc3)C2)C1 (single isomer, unassigned) [Example 125, 5-((1-(4-(3-(3-Methylazetidin-1-yl)pyrrolidin-1-yl)phenyl)-1H-imidazol-4-yl)amino)pyrazine-2-carbonitrile]",10 to 31.6 nM,1000 to 10000 nM,–
"N#Cc1cnc(Nc2cn(-c3ccc(N4CC5(CCN5)C4)cc3)cn2)cn1 [Example 160, 5-((1-(4-(1,6-Diazaspiro[3.3]heptan-6-yl)phenyl)-1H-imidazol-4-yl)amino)pyrazine-2-carbonitrile]",10 to 31.6 nM,1000 to 10000 nM,–
"CN1CC2(CC(Oc3cccc(-n4cnc(Nc5cnc(C#N)cn5)c4)c3)C2)C1 [Example 175, 5-((1-(3-((2-Methyl-2-azaspiro[3.3]heptan-6-yl)oxy)phenyl)-1H-imidazol-4-yl)amino)pyrazine-2-carbonitrile]",31.6 to 100 nM,10000 to 100000 nM,–
"CN1CCN(Cc2ccc(-n3cnc(Nc4cnc(C#N)cn4)c3)cc2)CC1 [Example 7, 5-((1-(4-((4-Methylpiperazin-1-yl)methyl)phenyl)-1H-imidazol-4-yl)amino)pyrazine-2-carbonitrile]",100 to 316 nM,> 100000 nM,–

# The next lines start with results.
IC50 (human Chk1 kinase),IC50 (human Chk2 kinase),SMILES,IC50 (GBM LN18 cells)
100 to 316 nM,> 100000 nM,"CN(C)[C@@H]1CCN(c2ccc(-n3cnc(Nc4cnc(C#N)cn4)c3)c(C(F)(F)F)c2)C1 [Example 71, (R)-5-((1-(4-(3-(Dimethylamino)pyrrolidin-1-yl)-2-(trifluoromethyl)phenyl)-1H-imidazol-4-yl)amino)pyrazine-2-carbonitrile]",< 1000 nM
< 10 nM,1000 to 10000 nM,"CN(C)[C@@H]1CCN(c2ccc(-n3cnc(Nc4cnc(C#N)cn4)c3)cc2F)C1 [Example 79, (R)-5-((1-(4-(3-(Dimethylamino)pyrrolidin-1-yl)-3-fluorophenyl)-1H-imidazol-4-yl)amino)pyrazine-2-carbonitrile]",< 1000 nM
10 to 31.6 nM,10000 to 100000 nM,"CC(C)N[C@@H]1CCN(c2ccc(-n3cnc(Nc4cnc(C#N)cn4)c3)cc2)C1 [Example 96, (R)-5-((1-(4-(3-(Isopropylamino)pyrrolidin-1-yl)phenyl)-1H-imidazol-4-yl)amino)pyrazine-2-carbonitrile]",< 1000 nM
31.6 to 100 nM,10000 to 100000 nM,"CN1CC[C@@H](N(C)c2ccc(-n3cnc(Nc4cnc(C#N)cn4)c3)cc2)C1 [Example 94, (R)-5-((1-(4-(Methyl(1-methylpyrrolidin-3-yl)amino)phenyl)-1H-imidazol-4-yl)amino)pyrazine-2-carbonitrile]",–
< 10 nM,1000 to 10000 nM,"CN(C)[C@H]1CN(c2ccc(-n3cnc(Nc4cnc(C#N)cn4)c3)cc2)C[C@@H]1F [Example 63, 5-((1-(4-((3S,4S)-3-(Dimethylamino)-4-fluoropyrrolidin-1-yl)phenyl)-1H-imidazol-4-yl)amino)pyrazine-2-carbonitrile]",–
31.6 to 100 nM,10000 to 100000 nM,"C[C@H]1CN(C)CCN1c1ccc(-n2cnc(Nc3cnc(C#N)cn3)c2)cc1 [Example 17, (S)-5-((1-(4-(2,4-Dimethylpiperazin-1-yl)phenyl)-1H-imidazol-4-yl)amino)pyrazine-2-carbonitrile]",–
31.6 to 100 nM,10000 to 100000 nM,"CN1C[C@@H]2CN(c3ccc(-n4cnc(Nc5cnc(C#N)cn5)c4)c(F)c3)[C@@H]2C1 [Example 80, 5-((1-(2-Fluoro-4-((1R,5S)-3-methyl-3,6-diazabicyclo[3.2.0]heptan-6-yl)phenyl)-1H-imidazol-4-yl)amino)pyrazine-2-carbonitrile]",–
31.6 to 100 nM,10000 to 100000 nM,"CN1CCC(N(C)c2cccc(-n3cnc(Nc4cnc(C#N)cn4)c3)c2)CC1 [Example 43, 5-((1-(3-(Methyl(1-methylpiperidin-4-yl)amino)phenyl)-1H-imidazol-4-yl)amino)pyrazine-2-carbonitrile]",–
31.6 to 100 nM,> 100000 nM,"N#Cc1cnc(Nc2cn(-c3ccc(N4CCC(N5CC(F)C5)C4)cc3)cn2)cn1 (single isomer, unassigned) [Example 129, 5-((1-(4-(3-(3-Fluoroazetidin-1-yl)pyrrolidin-1-yl)phenyl)-1H-imidazol-4-yl)amino)pyrazine-2-carbonitrile]",–

# — US20260132140A1, “IMIDAZOLYL-AMINO-PYRAZINE-CARBONITRILS AS CHK-1 INHIBITORS” (BenevolentAI Bio Limited, priority 2022, published 2026)
